{"source": "patent US20150118305A1", "about": "“COMPOSITIONS COMPRISING SULFORAPHANE OR A SULFORAPHANE PRECURSOR AND URSOLIC ACID” (Nutramax Laboratories, Inc., priority 2012, published 2015)", "key": {"[1]": {"system": "myrosinase", "assay": "Conversion of glucoraphanin to sulforaphane in Simulated Intestinal Fluid (Example 5)", "format": "biochemical, broccoli", "conditions": "38° C., 0.25 to 1.00 mmol/Liter ascorbic acid, FIG. 4", "method": "Simulated Intestinal Fluid (SIF) powder, a commercially supplied concentrate closely approximating the human intestinal content in terms of composition, pH and ionic strength, was used. The experiment utilized a USP Dissolution Apparatus 2 (paddles), where into six dissolution vessels 500 mL of Simulated Intestinal Fluid was dispensed, along with 150 mg of freeze-dried broccoli sprout powder as a source of myrosinase. […] Aliquots were withdrawn every 15 minutes, and assayed for sulforaphane."}, "[2]": {"system": "broccoli sprout-derived myrosinase", "assay": "Consumption of glucoraphanin by myrosinase as a function of ascorbic acid concentration (Example 3)", "format": "biochemical", "conditions": "for glucoraphanin (GR) content of reaction mixture: 38° C.", "method": "About 250 mg of broccoli seed extract containing about 12% (w/w) glucoraphanin were subjected to hydrolysis by a fixed concentration of broccoli sprout-derived myrosinase in the presence of variable concentration of ascorbic acid, ranging from 0 to 600 μmoles/Liter. The reaction mixtures were thermostated at 38° C.; aliquots were withdrawn every 15 minutes for 60 minutes, and concentration of glucoraphanin determined chromatographically. The rate of glucoraphanin consumption was interpreted as the rate its conversion to sulforaphane. Graphical representation of glucoraphanin content reduction as a function of increasing ascorbic acid concentration results in a series of linear plots; the slopes of the linear regression lines reflect the rate of glucoraphanin consumption, in pmoles/minute. It is apparent that in the presence of 600 μmoles/Liter concentration of ascorbic acid, the reaction rate increased 13-fold relative to that which proceeded in the absence of modulatory effects of ascorbic acid."}, "[3]": {"system": "myrosinase", "assay": "Equimolar conversion of glucoraphanin to sulforaphane, ascorbic acid modulating myrosinase activity (Example 4)", "format": "biochemical", "conditions": "Part 2; 250 mg broccoli seed extract", "method": "A two-part experiment was conducted to further elucidate the role of ascorbic acid in modulating myrosinase activity. […] A control sample contained no ascorbic acid, and the enzymatic conversion proceeded unassisted by a co-factor. PART 1. […] PART 2. While keeping the amount of broccoli seed extract fixed at 250 mg, the concentration of ascorbic acid was varied from 0.4 mmol/Liter to 3.8 mmol/Liter."}, "[4]": {"system": "NAD(P)H:quinine oxidoreductase (NQO1)", "conditions": "oral administration; mammary epithelium; cited from earlier work"}, "[5]": {"system": "matrix metalloproteinase-9 (MMP-9) gene expression", "assay": "MMP-9 gene expression in PC3 cells by quantitative RT-PCR (Example 6)", "format": "cell-based", "conditions": "PC3, 24 hours", "method": "The following study was conducted to determine the effect of the combination of sulforaphane and ursolic acid on matrix metalloproteinase-9 (MMP-9) gene expression. The MMP-9 gene encodes the protein that is known to degrade the extracellular matrix, which is the support system of cells. In prostate, colon, brain, and other cancers, MMP9 expression is increased, and this increase has been correlated with metastasis. A decrease in MMP-9 is favorable for these cancers.\nIn the study, the prostate cancer cell line PC3 was treated with DMSO (vehicle control), sulforaphane (SFN), ursolic acid (UA), or the combination of sulforaphane and ursolic acid, for 24 hours. Gene expression of MMP-9 was analyzed via quantitative RT-PCR. FIGS. 5a and 5b and FIG. C show the results of the study.\nTwo separate treatments were conducted. […] The following reductions in gene expression of MMP-9 were observed: (i) a 5% decrease with 1 μM SFN alone, (ii) a 31% decrease with 5 μg/mL UA alone, and (iii) a 40% decrease with the combination of 1 μM SFN and 5 μg/mL UA. […] The following reductions in gene expression of MMP-9 were observed: (i) a 13% decrease with 1 μM SFN alone, (ii) a 28% decrease with 5 μg/mL UA alone, and (iii) a 45% decrease with the combination of 1 μM SFN and 5 μg/mL UA.\nThe following reductions in gene expression of MMP-9 were observed: (i) a 39% decrease with 5 μM SFN alone, (ii) a 15% decrease with 10 μg/mL UA alone, and (iii) a 59% decrease with the combination of 5 μM SFN and 10 μg/mL UA."}, "[6]": {"system": "heme oxygenase-1 (HO-1)", "conditions": "oral administration; mammary epithelium; cited from earlier work"}}, "data": [{"compound": "O=C1O[C@H]([C@@H](O)CO)C(O)=C1O", "note": "[Ascorbic Acid, ascorbic acid]", "values": [{"measurement": "sulforaphane yield versus ascorbic acid concentration", "setting": "[1]", "result": "direct correlation between larger yield of sulforaphane and higher concentrations of ascorbic acid"}, {"measurement": "Slope of linear regression (rate of glucoraphanin consumption)", "setting": "[2]; 50 μM ascorbic acid", "result": -0.286, "unit": "µmol/min"}, {"measurement": "glucoraphanin (GR) content of reaction mixture", "setting": "[2]; 50 μM ascorbic acid, 0 min", "result": 93.36, "unit": "µmol"}, {"measurement": "glucoraphanin (GR) content of reaction mixture", "setting": "[2]; 50 μM ascorbic acid, 15 min", "result": 89.20, "unit": "µmol"}, {"measurement": "glucoraphanin (GR) content of reaction mixture", "setting": "[2]; 50 μM ascorbic acid, 30 min", "result": 84.24, "unit": "µmol"}, {"measurement": "glucoraphanin (GR) content of reaction mixture", "setting": "[2]; 50 μM ascorbic acid, 45 min", "result": 80.30, "unit": "µmol"}, {"measurement": "glucoraphanin (GR) content of reaction mixture", "setting": "[2]; 50 μM ascorbic acid, 60 min", "result": 76.36, "unit": "µmol"}, {"measurement": "Slope of linear regression (rate of glucoraphanin consumption)", "setting": "[2]; 125 μM ascorbic acid", "result": -0.5622, "unit": "µmol/min"}, {"measurement": "glucoraphanin (GR) content of reaction mixture", "setting": "[2]; 125 μM ascorbic acid, 0 min", "result": 93.36, "unit": "µmol"}, {"measurement": "glucoraphanin (GR) content of reaction mixture", "setting": "[2]; 125 μM ascorbic acid, 15 min", "result": 84.52, "unit": "µmol"}, {"measurement": "glucoraphanin (GR) content of reaction mixture", "setting": "[2]; 125 μM ascorbic acid, 30 min", "result": 75.92, "unit": "µmol"}, {"measurement": "glucoraphanin (GR) content of reaction mixture", "setting": "[2]; 125 μM ascorbic acid, 45 min", "result": 68.09, "unit": "µmol"}, {"measurement": "glucoraphanin (GR) content of reaction mixture", "setting": "[2]; 125 μM ascorbic acid, 60 min", "result": 59.41, "unit": "µmol"}, {"measurement": "Slope of linear regression (rate of glucoraphanin consumption)", "setting": "[2]; 250 μM Filtered ascorbic acid", "result": -0.4714, "unit": "µmol/min"}, {"measurement": "glucoraphanin (GR) content of reaction mixture", "setting": "[2]; 250 μM Filtered ascorbic acid, 0 min", "result": 93.36, "unit": "µmol"}, {"measurement": "glucoraphanin (GR) content of reaction mixture", "setting": "[2]; 250 μM Filtered ascorbic acid, 15 min", "result": 86.31, "unit": "µmol"}, {"measurement": "glucoraphanin (GR) content of reaction mixture", "setting": "[2]; 250 μM Filtered ascorbic acid, 30 min", "result": 79.44, "unit": "µmol"}, {"measurement": "glucoraphanin (GR) content of reaction mixture", "setting": "[2]; 250 μM Filtered ascorbic acid, 45 min", "result": 71.94, "unit": "µmol"}, {"measurement": "glucoraphanin (GR) content of reaction mixture", "setting": "[2]; 250 μM Filtered ascorbic acid, 60 min", "result": 65.18, "unit": "µmol"}, {"measurement": "Slope of linear regression (rate of glucoraphanin consumption)", "setting": "[2]; 250 μM ascorbic acid", "result": -0.7901, "unit": "µmol/min"}, {"measurement": "glucoraphanin (GR) content of reaction mixture", "setting": "[2]; 250 μM ascorbic acid, 0 min", "result": 93.36, "unit": "µmol"}, {"measurement": "glucoraphanin (GR) content of reaction mixture", "setting": "[2]; 250 μM ascorbic acid, 15 min", "result": 80.95, "unit": "µmol"}, {"measurement": "glucoraphanin (GR) content of reaction mixture", "setting": "[2]; 250 μM ascorbic acid, 30 min", "result": 69.06, "unit": "µmol"}, {"measurement": "glucoraphanin (GR) content of reaction mixture", "setting": "[2]; 250 μM ascorbic acid, 45 min", "result": 57.63, "unit": "µmol"}, {"measurement": "glucoraphanin (GR) content of reaction mixture", "setting": "[2]; 250 μM ascorbic acid, 60 min", "result": 45.76, "unit": "µmol"}, {"measurement": "Slope of linear regression (rate of glucoraphanin consumption)", "setting": "[2]; 400 μM ascorbic acid", "result": -1.007, "unit": "µmol/min"}, {"measurement": "glucoraphanin (GR) content of reaction mixture", "setting": "[2]; 400 μM ascorbic acid, 0 min", "result": 93.36, "unit": "µmol"}, {"measurement": "glucoraphanin (GR) content of reaction mixture", "setting": "[2]; 400 μM ascorbic acid, 15 min", "result": 78.32, "unit": "µmol"}, {"measurement": "glucoraphanin (GR) content of reaction mixture", "setting": "[2]; 400 μM ascorbic acid, 30 min", "result": 62.78, "unit": "µmol"}, {"measurement": "glucoraphanin (GR) content of reaction mixture", "setting": "[2]; 400 μM ascorbic acid, 45 min", "result": 47.67, "unit": "µmol"}, {"measurement": "glucoraphanin (GR) content of reaction mixture", "setting": "[2]; 400 μM ascorbic acid, 60 min", "result": 33.15, "unit": "µmol"}, {"measurement": "Slope of linear regression (rate of glucoraphanin consumption)", "setting": "[2]; 600 μM ascorbic acid", "result": -1.2, "unit": "µmol/min"}, {"measurement": "glucoraphanin (GR) content of reaction mixture", "setting": "[2]; 600 μM ascorbic acid, 0 min", "result": 93.36, "unit": "µmol"}, {"measurement": "glucoraphanin (GR) content of reaction mixture", "setting": "[2]; 600 μM ascorbic acid, 15 min", "result": 75.02, "unit": "µmol"}, {"measurement": "glucoraphanin (GR) content of reaction mixture", "setting": "[2]; 600 μM ascorbic acid, 30 min", "result": 55.66, "unit": "µmol"}, {"measurement": "glucoraphanin (GR) content of reaction mixture", "setting": "[2]; 600 μM ascorbic acid, 45 min", "result": 37.50, "unit": "µmol"}, {"measurement": "glucoraphanin (GR) content of reaction mixture", "setting": "[2]; 600 μM ascorbic acid, 60 min", "result": 22.09, "unit": "µmol"}, {"measurement": "increase of reaction rate relative to absence of ascorbic acid", "setting": "[2]; 600 μmoles/Liter ascorbic acid", "result": 13, "unit": "fold"}, {"measurement": "ascorbic acid concentration up to which myrosinase-promoted conversion increases apparently linearly, then levels off", "setting": "[3]", "result": "about 2 mmol/L"}]}, {"compound": "C[S+]([O-])CCCCN=C=S", "note": "(centres unmarked) [SFN, 1-isothiocyanato-4-methylsulfinylbutane]", "values": [{"measurement": "increase in NQO1 enzymatic activity", "setting": "[4]", "result": 3, "unit": "fold"}, {"measurement": "decrease in gene expression of MMP-9", "setting": "[5]; 1 μM SFN alone, Part 1 first treatment (FIG. 5a)", "result": 5, "unit": "%"}, {"measurement": "decrease in gene expression of MMP-9", "setting": "[5]; 1 μM SFN alone, Part 1 second treatment (FIG. 5b)", "result": 13, "unit": "%"}, {"measurement": "decrease in gene expression of MMP-9", "setting": "[5]; 5 μM SFN alone, Part 2 (FIG. 6)", "result": 39, "unit": "%"}, {"measurement": "elevated immunostaining of HO-1 enzyme", "setting": "[6]", "result": 4, "unit": "fold"}]}, {"compound": "C[C@H]1[C@H](C)CC[C@]2(C(=O)O)CC[C@]3(C)C(=CC[C@@H]4[C@@]5(C)CC[C@H](O)C(C)(C)[C@@H]5CC[C@]43C)[C@H]12", "note": "[UA, (1S,2R,4aS,6aR,6aS,6bR,8aR,10S,12aR,14bS)-10-hydroxy-1,2,6a,6b,9,9,12a-heptamethyl-2,3,4,5,6,6a,7,8,8a,10,11,12,13,14b-tetradecahydro-1H-picene-4a-carboxylic acid]", "values": [{"measurement": "decrease in gene expression of MMP-9", "setting": "[5]; 5 μg/mL UA alone, Part 1 first treatment (FIG. 5a)", "result": 31, "unit": "%"}, {"measurement": "decrease in gene expression of MMP-9", "setting": "[5]; 5 μg/mL UA alone, Part 1 second treatment (FIG. 5b)", "result": 28, "unit": "%"}, {"measurement": "decrease in gene expression of MMP-9", "setting": "[5]; 10 μg/mL UA alone, Part 2 (FIG. 6)", "result": 15, "unit": "%"}]}]}
